US20250002507A1, “7,8-DIHYDRO-5H-1,6-NAPHTHYRIDINE DERIVATIVES AS POSITIVE ALLOSTERIC MODULATORS OF THE MUSCARINIC ACETYLCHOLINE RECEPTOR M4 FOR TREATING NEUROLOGICAL AND PSYCHIATRIC DISORDERS” (Vanderbilt University, priority 2021, published 2025)

Target: T1, Human M4 (Homo sapiens, UniProt P08173)
T1 construct: expressed in transfected cells
T1 sequence (P08173 1-479): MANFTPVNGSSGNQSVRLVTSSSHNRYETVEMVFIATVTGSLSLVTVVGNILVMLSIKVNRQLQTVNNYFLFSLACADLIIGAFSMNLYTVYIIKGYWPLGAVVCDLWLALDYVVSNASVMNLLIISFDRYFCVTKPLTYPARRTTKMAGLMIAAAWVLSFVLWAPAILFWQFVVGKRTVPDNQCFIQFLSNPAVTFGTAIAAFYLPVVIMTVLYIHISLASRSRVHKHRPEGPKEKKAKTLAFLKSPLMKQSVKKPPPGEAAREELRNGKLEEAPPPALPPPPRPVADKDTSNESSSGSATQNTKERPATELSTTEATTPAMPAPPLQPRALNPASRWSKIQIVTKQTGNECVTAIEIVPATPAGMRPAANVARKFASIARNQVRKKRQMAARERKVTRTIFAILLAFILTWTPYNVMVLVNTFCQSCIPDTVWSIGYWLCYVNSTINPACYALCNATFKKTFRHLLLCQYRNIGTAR
Assay: mAChR M4 cell-based functional assay (calcium flux, potentiation of EC20 acetylcholine response), hM4-Gqi5 CHO-K1 cells
Conditions: for Emax at 30 µM: % ACh maximum at 30 μM, human M4, read-out: Emax; for EC50: hM4-Gqi5 CHO-K1 cells, calcium flux, PAM of EC20 acetylcholine, read-out: Human M4 EC50
Protocol: Human and rat M4 cDNAs, along with the chimeric G protein Gqi5, were transfected into Chinese hamster ovary (CHO-K1) cells purchased from the American Type Culture Collection using Lipofectamine2000. hM4-Gqi5 cells were grown in Ham's F-12 medium containing 10% heat-inactivated fetal bovine serum (FBS), 20 mM HEPES, 50 μg/mL G418 sulfate, and 500 μg/mL Hygromycin B. rM4-Gqi5 cells were grown in DMEM containing 10% heat-inactivated FBS, 20 mM HEPES, 400 μg/mL G418 sulfate, and 500 μg/mL Hygromycin B.
For high throughput measurement of agonist-evoked increases in intracellular calcium, CHO-K1 cells stably expressing muscarinic receptors were plated in growth medium lacking G418 and hygromycin at 15,000 cells/20 μL/well in Greiner 384-well black-walled, tissue culture (TC)-treated, clear-bottom plates (VWR). Cells were incubated overnight at 37° C. and 5% CO2. The next day, cells were washed using an ELX 405 (BioTek) with assay buffer; the final volume was then aspirated to 20 μL. Next, 20 μL of a 2.3 μM stock of Fluo-4/acetoxymethyl ester (Invitrogen, Carlsbad, CA), prepared as a 2.3 mM stock in DMSO and mixed in a 1:1 ratio with 10% (w/v) Pluronic F-127 and diluted in assay buffer, was added to the wells and the cell plates were incubated for 50 min at 37° C. and 5% CO2. Dye was removed by washing with the ELX 405 and the final volume was aspirated to 20 μL. Compound master plates were formatted in an 11 point concentration-response curve (CRC) format (1:3 dilutions) in 100% DMSO with a starting concentration of 10 mM using a BRAVO liquid handler (Agilent). Test compound CRCs were then transferred to daughter plates (240 nL) using the Echo acoustic plate reformatter (Labcyte, Sunnyvale, CA) and then diluted into assay buffer (40 μL) to a 2× stock using a Thermo Fisher Combi (Thermo Fisher Scientific, Waltham, MA).
Calcium flux was measured using the Functional Drug Screening System (FDSS) 6000 or 7000 (Hamamatsu Corporation, Tokyo, Japan) as an increase in the fluorescent static ratio. Compounds were applied to cells (20 μL, 2×) using the automated system of the FDSS at 2-4 seconds into the protocol and the data were collected at 1 Hz. At 144 seconds, 10 μL of an EC20 concentration of the muscarinic receptor agonist acetylcholine was added (5×), followed by the addition of 12 μL of an EC80 concentration of acetylcholine at the 230 second time point (5×). Agonist activity was analyzed as a concentration-dependent increase in calcium mobilization upon compound addition. Positive allosteric modulator activity was analyzed as a concentration-dependent increase in the EC20 acetylcholine response. Antagonist activity was analyzed as a concentration-dependent decrease in the EC80 acetylcholine response. Concentration-response curves were generated using a four-parameter logistical equation in XLFit curve fitting software (IDBS, Bridgewater, NJ) for Excel (Microsoft, Redmond, WA) or Prism (GraphPad Software, Inc., San Diego, CA).
Compounds were synthesized as described above. Activity (EC50 and Emax) was determined in the mAChR M4 cell-based functional assay as described above and the data are shown in Tables 2-4. The compound number corresponds to the compound numbers used in Table 1.

| Compound | Emax at 30 µM (CHO-K1) | EC50 | Emax (CHO-K1) |
| --- | --- | --- | --- |
| Cc1c(N2CCc3ncc(-c4cnn(Cc5ccccn5)c4)cc3C2)nn2cnnc2c1C [Compound 24, 6-(7,8-dimethyl-[1,2,4]triazolo[4,3-b]pyridazin-6-yl)-3-[1-(2-pyridylmethyl)pyrazol-4-yl]-7,8-dihydro-5H-1,6-naphthyridine] | 94% | – | – |
| Cc1c(N2CCc3ncc(NCC4CCCO4)cc3C2)nn2cnnc2c1C (stereo not shown) [Compound 26, 6-(7,8-dimethyl-[1,2,4]triazolo[4,3-b]pyridazin-6-yl)-N-(tetrahydrofuran-2-ylmethyl)-7,8-dihydro-5H-1,6-naphthyridin-3-amine] | 75% | 0.737 µM | – |
| COc1ccc(Nc2cnc3c(c2)CN(c2nn4cnnc4c(C)c2C)CC3)c(F)c1F [Compound 27, N-(2,3-difluoro-4-methoxy-phenyl)-6-(7,8-dimethyl-[1,2,4]triazolo[4,3-b]pyridazin-6-yl)-7,8-dihydro-5H-1,6-naphthyridin-3-amine] | 77% | 0.597 µM | – |
| Cc1c(N2CCc3ncc(Nc4c(F)ccc(Cl)c4F)cc3C2)nn2cnnc2c1C [Compound 29, N-(3-chloro-2,6-difluoro-phenyl)-6-(7,8-dimethyl-[1,2,4]triazolo[4,3-b]pyridazin-6-yl)-7,8-dihydro-5H-1,6-naphthyridin-3-amine] | 87% | 0.443 µM | – |
| COc1cc(F)c(Nc2cnc3c(c2)CN(c2nn4cnnc4c(C)c2C)CC3)c(F)c1 [Compound 31, N-(2,6-difluoro-4-methoxy-phenyl)-6-(7,8-dimethyl-[1,2,4]triazolo[4,3-b]pyridazin-6-yl)-7,8-dihydro-5H-1,6-naphthyridin-3-amine] | 88% | 0.455 µM | – |
| Cc1c(N2CCc3ncc(Nc4cc(Cl)ccc4F)cc3C2)nn2cnnc2c1C [Compound 34, N-(5-chloro-2-fluoro-phenyl)-6-(7,8-dimethyl-[1,2,4]triazolo[4,3-b]pyridazin-6-yl)-7,8-dihydro-5H-1,6-naphthyridin-3-amine] | 93% | 0.562 µM | – |
| Cc1cc(-c2cnc3c(c2)CN(c2nn4cnnc4c(C)c2C)CC3)cc(Cl)n1 [Compound 35, 3-(2-chloro-6-methyl-4-pyridyl)-6-(7,8-dimethyl-[1,2,4]triazolo[4,3-b]pyridazin-6-yl)-7,8-dihydro-5H-1,6-naphthyridine] | 78% | 1.9 µM | – |
| Cc1ncc(-c2cnc3c(c2)CN(c2nn4cnnc4c(C)c2C)CC3)cn1 [Compound 37, 6-(7,8-dimethyl-[1,2,4]triazolo[4,3-b]pyridazin-6-yl)-3-(2-methylpyrimidin-5-yl)-7,8-dihydro-5H-1,6-naphthyridine] | 59% | 2.28 µM | – |
| Cc1c(N2CCc3ncc(-c4cncc(C#N)c4)cc3C2)nn2cnnc2c1C [Compound 40, 5-[6-(7,8-dimethyl-[1,2,4]triazolo[4,3-b]pyridazin-6-yl)-7,8-dihydro-5H-1,6-naphthyridin-3-yl]pyridine-3-carbonitrile] | 69% | 0.716 µM | – |
| COc1ccncc1-c1cnc2c(c1)CN(c1nn3cnnc3c(C)c1C)CC2 [Compound 41, 6-(7,8-dimethyl-[1,2,4]triazolo[4,3-b]pyridazin-6-yl)-3-(4-methoxy-3-pyridyl)-7,8-dihydro-5H-1,6-naphthyridine] | 81% | 0.442 µM | – |

More lines, now with the values ahead:

| Emax at 30 µM (CHO-K1) | EC50 | Emax (CHO-K1) | Compound |
| --- | --- | --- | --- |
| 65% | 0.348 µM | – | Cc1c(N2CCc3ncc(N4CCC5OCCCC5C4)cc3C2)nn2cnnc2c1C (stereo not shown) [Compound 25, 6-[6-(7,8-dimethyl-[1,2,4]triazolo[4,3-b]pyridazin-6-yl)-7,8-dihydro-5H-1,6-naphthyridin-3-yl]-2,3,4,4a,5,7,8,8a-octahydropyrano[3,2-c]pyridine] |
| 93% | 0.231 µM | – | COc1ccc(Nc2cnc3c(c2)CN(c2nn4cnnc4c(C)c2C)CC3)c(F)c1 [Compound 28, 6-(7,8-dimethyl-[1,2,4]triazolo[4,3-b]pyridazin-6-yl)-N-(2-fluoro-4-methoxy-phenyl)-7,8-dihydro-5H-1,6-naphthyridin-3-amine] |
| 94% | 0.12 µM | – | Cc1c(N2CCc3ncc(Nc4cc(F)cc(F)c4F)cc3C2)nn2cnnc2c1C [Compound 30, 6-(7,8-dimethyl-[1,2,4]triazolo[4,3-b]pyridazin-6-yl)-N-(2,3,5-trifluorophenyl)-7,8-dihydro-5H-1,6-naphthyridin-3-amine] |
| 102% | 0.0848 µM | – | Cc1c(N2CCc3ncc(Nc4cc(F)ccc4F)cc3C2)nn2cnnc2c1C [Compound 32, N-(2,5-difluorophenyl)-6-(7,8-dimethyl-[1,2,4]triazolo[4,3-b]pyridazin-6-yl)-7,8-dihydro-5H-1,6-naphthyridin-3-amine] |
| – | 0.161 µM | 94% | Cc1c(N2CCc3ncc(Nc4ccccc4F)cc3C2)nn2cnnc2c1C [Compound 33, 6-(7,8-Dimethyl-[1,2,4]triazolo[4,3-b]pyridazin-6-yl)-N-(2-fluorophenyl)-5,6,7,8-tetrahydro-1,6-naphthyridin-3-amine] |
| 85% | 0.295 µM | – | Cc1c(N2CCc3ncc(-c4ccc(C(F)(F)F)nc4)cc3C2)nn2cnnc2c1C [Compound 36, 6-(7,8-dimethyl-[1,2,4]triazolo[4,3-b]pyridazin-6-yl)-3-[6-(trifluoromethyl)-3-pyridyl]-7,8-dihydro-5H-1,6-naphthyridine] |
| 90% | 0.149 µM | – | Cc1c(N2CCc3ncc(-c4ccc(C5CC5)nc4)cc3C2)nn2cnnc2c1C [Compound 38, 3-(6-cyclopropyl-3-pyridyl)-6-(7,8-dimethyl-[1,2,4]triazolo[4,3-b]pyridazin-6-yl)-7,8-dihydro-5H-1,6-naphthyridine] |
| 95% | 0.115 µM | – | Cc1ccc(-c2cnc3c(c2)CN(c2nn4cnnc4c(C)c2C)CC3)cn1 [Compound 39, 6-(7,8-dimethyl-[1,2,4]triazolo[4,3-b]pyridazin-6-yl)-3-(6-methyl-3-pyridyl)-7,8-dihydro-5H-1,6-naphthyridine] |
| 94% | 0.217 µM | – | Cc1c(N2CCc3ncc(-c4ccc(F)nc4)cc3C2)nn2cnnc2c1C [Compound 42, 6-(7,8-dimethyl-[1,2,4]triazolo[4,3-b]pyridazin-6-yl)-3-(6-fluoro-3-pyridyl)-7,8-dihydro-5H-1,6-naphthyridine] |
| 94% | 0.182 µM | – | COc1ccc(-c2cnc3c(c2)CN(c2nn4cnnc4c(C)c2C)CC3)cn1 [Compound 43, 6-(7,8-dimethyl-[1,2,4]triazolo[4,3-b]pyridazin-6-yl)-3-(6-methoxy-3-pyridyl)-7,8-dihydro-5H-1,6-naphthyridine] |
| 92% | 0.147 µM | – | Cc1c(N2CCc3ncc(-c4cccnc4)cc3C2)nn2cnnc2c1C [Compound 44, 6-(7,8-dimethyl-[1,2,4]triazolo[4,3-b]pyridazin-6-yl)-3-(3-pyridyl)-7,8-dihydro-5H-1,6-naphthyridine] |
| 71% | 0.271 µM | – | Cc1c(N2CCc3ncc(Nc4cc(Cl)c(F)cc4F)cc3C2)nn2cnnc2c1C [Compound 45, N-(5-chloro-2,4-difluoro-phenyl)-6-(7,8-dimethyl-[1,2,4]triazolo[4,3-b]pyridazin-6-yl)-7,8-dihydro-5H-1,6-naphthyridin-3-amine] |
